Article PMC4350332 (Oncotarget, 2014)

How the values were obtained:
[1] = tested on: p(Ser^293)E1α levels in ES-2 cells; assay: Phospho(Ser293) E1α suppression in ES-2 cells; assay type: cell-based
Procedure: Phospho(Ser^293) E1α MSD ELISA assay: All reagents were purchased from Meso Scale Discovery (Maryland, USA) unless otherwise stated. Following compound treatment, cells were treated with lysis buffer (TBS pH 7.4, 1% Tween-20, 1 mM EGTA, 1 mM EDTA, 1 mM NaF, protease and phosphatase inhibitor cocktails (Roche)) on ice and the lysates added to standard bind 96 well MSD plates which were pre-loaded with custom phospho(Ser^293)E1α ‘capture’ antibody (2 μg/ml in TBST containing 3% (w/v) blocker A) (Genescript) and blocked with 3% (w/v) blocker A, followed by a 1 h incubation at RT. The wells were then washed 3X with TBST (0.05% tween 20) followed by the addition of 2 μg/ml E1α ‘detection’ antibody (2 μg/ml) (Abcam) and a further 1 h incubation at RT. The wells were again washed 3X with TBST followed by the addition of 1 μg/ml Goat anti-mouse Sulfotag antibody, and a further TBST wash prior to the addition of 2X read buffer T. The chemiluminescent signal was then measured on a MSD sector imager 2400.

PDK-4 = biological target: T1, PDK-4 (Homo sapiens, UniProt Q16654); assay: DELFIA-based enzyme functional assay (E1 substrate), PDK-4; assay type: biochemical; details: data not shown
T1 construct: PDK-4: residues 1-412; made in house; host or cells: E. coli BL21

HFF cells = assay: Sulforhodamine B cytotoxicity, HFF cells; assay type: cell-based, human; details: all of the conditions tested, 120 h
Procedure: Compound cytotoxicity was determined using the Sulforhodamine B assay for cells cultured as a monolayer as described previously (45). For spheroid growth experiments, PC-3 cells were seeded (500 cells/well) into 96 well round bottom plates (Corning Costar 7007) in RPMI-1640 media containing 2.5% (w/v) Matrigel (BD Biosciences). […] Spheroid volumes were determined by obtaining diameter measurements from images taken on a Zeiss Axiovert 200M inverted microscope using the axiovision software. […]
oncogenic KRAS(G13D) and BRAF(V600E) mutations. A and B, Cell lines harboring a KRAS(G13D) mutation (HCT-116, DLD-1 and MDA-MB-231), wild-type KRAS (MDA-MB-453) or a BRAF(V600E) mutation (A2058 and A375) were seeded into 96 well plates. The […]
DMSO in different culture conditions for 120 h. Cell mass was determined using the suforhodamine B assay. Norm = glucose-free media supplemented with 10% FCS and 2 g/L D-glucose; VLG (very low glucose) = 0.1 g/L D-glucose; LS (low serum) = 0.5% FCS.
Experiments were performed in triplicate. Error bars represent standard deviation of the […]
(1 picture or pasted object on this page, not shown here)

PC-3 spheroids = assay: Spheroid growth assay (3D culture); assay type: cell-based; details: concentrations of 10 μM and above
Procedure: Compound cytotoxicity was determined using the Sulforhodamine B assay for cells cultured as a monolayer as described previously (45). For spheroid growth experiments, PC-3 cells were seeded (500 cells/well) into 96 well round bottom plates (Corning Costar 7007) in RPMI-1640 media containing 2.5% (w/v) Matrigel (BD Biosciences). […] Spheroid volumes were determined by obtaining diameter measurements from images taken on a Zeiss Axiovert 200M inverted microscope using the axiovision software.

PC-3 cells = assay: Cell cycle and sub-G1 analysis (PI/FACS); assay type: cell-based; details: PC-3, 20 μM, 48 h
Procedure: PC-3 cells were seeded into 6-well plates at a density of 1×10^5 cells per well. […] Following ethanol fixation and treatment with RNAse (Sigma), cellular DNA was stained with propidium iodide (50 μg/mL). The samples were then acquired on a FACSArray (BD Biosciences) flow cytometer and the data analyzed using FACSDiva software.

panel of 97 kinases = assay: scanEDGE kinase selectivity screen (DiscoverX); assay type: binding; details: 10 μM
Excerpt: A proprietary active site-directed competition binding assay was employed to quantitatively measure interactions between test compounds and the individual kinases on the panel. Results were expressed as a percentage of control binding, with 0% indicating complete binding of the test compound.

T1 sequence (Q16654 whole entry, the tested form may be a part): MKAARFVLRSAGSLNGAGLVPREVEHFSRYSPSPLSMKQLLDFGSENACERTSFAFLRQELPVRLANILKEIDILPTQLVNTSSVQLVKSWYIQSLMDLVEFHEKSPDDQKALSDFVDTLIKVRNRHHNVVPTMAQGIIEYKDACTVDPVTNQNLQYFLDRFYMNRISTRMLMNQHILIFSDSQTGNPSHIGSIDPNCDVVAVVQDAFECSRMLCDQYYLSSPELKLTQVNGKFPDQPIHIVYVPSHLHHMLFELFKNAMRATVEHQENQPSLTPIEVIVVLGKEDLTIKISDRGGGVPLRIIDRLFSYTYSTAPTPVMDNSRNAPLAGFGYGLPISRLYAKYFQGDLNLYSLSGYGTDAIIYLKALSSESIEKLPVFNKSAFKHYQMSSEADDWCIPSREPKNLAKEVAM

| Stimulation of PDK-4 activity (PDK-4) | SMILES | Sub-maximal suppression of p(Ser^293)E1α levels [1] | Activity against HFF cells (HFF cells) | Reduction in spheroid volume (PC-3 spheroids) | Cell cycle distribution (PC-3 cells; serum-starved conditions) | Apoptosis induction (sub-G1 fraction) (PC-3 cells; standard and serum-depleted conditions) | Number of further kinases with ligand binding between 10 and 35% of control (panel of 97 kinases) | Number of kinases with ligand binding reduced to ≤ 10% of control values (panel of 97 kinases) | Kinases on the panel with significant or partial binding (panel of 97 kinases; ligand binding reduced to ≤35% of control) |
| --- | --- | --- | --- | --- | --- | --- | --- | --- | --- |
| approximately 2 fold | C[C@@H]1CN(C(=O)[C@](C)(O)C(F)(F)F)[C@@H](C)CN1C(=O)c1ccc(C#N)cc1 [Nov3r, reference compound] | 80% | – | – | – | – | – | – | – |
| – | Cc1cnc(Cl)nc1-c1ccc(N(Cc2ccc(CNC(=O)C(F)F)cc2)C(=O)c2ccc(O)cc2O)cc1 [VER-246608] | – | largely inactive | approximately 50% | increased fraction of cells in the G1 phase | No evidence of apoptosis induction | seven | one | 8% |
